Test results as given in the NIST ThermoML archive (doi:10.1021/je9002306).

Key:
[1] = mn = molality of the nth substance listed, in mol/kg; conditions: 298.15 K, 101.3 kPa, Liquid, Vibrating tube method
[2] = cn = amount concentration of the nth substance listed, in mol/dm3; conditions: 298.15 K, 101.3 kPa, Liquid, Wayne-Kerr 6430B Auto Balance Bridge

CCCCCCCCCCn1cc[n+](C)c1.[Br-] [1-decyl-3-methylimidazolium bromide] + CN(C)C=O
Conditions | mass density [kg/m3] | molar conductivity [S·m2/mol]
[1], m1 = 0.004548 | 944.601 | –
[1], m1 = 0.009331 | 944.904 | –
[1], m1 = 0.01416 | 945.206 | –
[1], m1 = 0.01889 | 945.493 | –
[1], m1 = 0.02351 | 945.774 | –
[1], m1 = 0.02843 | 946.065 | –
[1], m1 = 0.03329 | 946.353 | –
[1], m1 = 0.03813 | 946.64 | –
[1], m1 = 0.04346 | 946.942 | –
[1], m1 = 0.04852 | 947.237 | –
[2], c1 = 0.0001732 | – | 0.007794
[2], c1 = 0.0002484 | – | 0.007742
[2], c1 = 0.0003119 | – | 0.007708
[2], c1 = 0.0003859 | – | 0.007672
[2], c1 = 0.0004585 | – | 0.007636
[2], c1 = 0.0005275 | – | 0.007607
[2], c1 = 0.0005939 | – | 0.007575
[2], c1 = 0.0006636 | – | 0.007549
[2], c1 = 0.0007275 | – | 0.007523
[2], c1 = 0.0007761 | – | 0.007502

CCCCCCCCCCn1cc[n+](C)c1.[Br-] [1-decyl-3-methylimidazolium bromide] + C[S+](C)[O-]
Conditions | mass density [kg/m3] | molar conductivity [S·m2/mol]
[1], m1 = 0.005147 | 1095.4 | –
[1], m1 = 0.00868 | 1095.45 | –
[1], m1 = 0.01336 | 1095.53 | –
[1], m1 = 0.01682 | 1095.59 | –
[1], m1 = 0.02087 | 1095.65 | –
[1], m1 = 0.02779 | 1095.77 | –
[1], m1 = 0.03347 | 1095.87 | –
[1], m1 = 0.04096 | 1096 | –
[1], m1 = 0.04462 | 1096.07 | –
[1], m1 = 0.05299 | 1096.22 | –
[2], c1 = 0.0002071 | – | 0.003508
[2], c1 = 0.0003447 | – | 0.003485
[2], c1 = 0.0004551 | – | 0.003472
[2], c1 = 0.000577 | – | 0.003459
[2], c1 = 0.0006934 | – | 0.003446
[2], c1 = 0.0008066 | – | 0.003433
[2], c1 = 0.0008974 | – | 0.003426
[2], c1 = 0.001043 | – | 0.003413
[2], c1 = 0.001234 | – | 0.003397

CCCCCCCCCCn1cc[n+](C)c1.[Br-] [1-decyl-3-methylimidazolium bromide] + OCCO
Conditions | mass density [kg/m3] | molar conductivity [S·m2/mol]
[1], m1 = 0.005851 | 1109.99 | –
[1], m1 = 0.0106 | 1110 | –
[1], m1 = 0.01551 | 1110 | –
[1], m1 = 0.01977 | 1110.01 | –
[1], m1 = 0.02479 | 1110.01 | –
[1], m1 = 0.02646 | 1110.02 | –
[1], m1 = 0.03544 | 1110.02 | –
[1], m1 = 0.03722 | 1110.02 | –
[1], m1 = 0.04453 | 1110.03 | –
[2], c1 = 0.0003546 | – | 0.000667
[2], c1 = 0.0004359 | – | 0.000666
[2], c1 = 0.0005147 | – | 0.000664
[2], c1 = 0.0005865 | – | 0.000663
[2], c1 = 0.0006739 | – | 0.000661
[2], c1 = 0.0007633 | – | 0.00066
[2], c1 = 0.0008415 | – | 0.000659
[2], c1 = 0.0009056 | – | 0.000658
[2], c1 = 0.0009847 | – | 0.000657
[2], c1 = 0.001065 | – | 0.000656

CCCCCCCCCCCCn1cc[n+](C)c1.[Br-] [1-dodecyl-3-methylimidazolium bromide] + CN(C)C=O
Conditions | mass density [kg/m3] | molar conductivity [S·m2/mol]
[1], m1 = 0.003861 | 944.545 | –
[1], m1 = 0.008055 | 944.798 | –
[1], m1 = 0.0123 | 945.047 | –
[1], m1 = 0.01627 | 945.277 | –
[1], m1 = 0.02032 | 945.508 | –
[1], m1 = 0.02446 | 945.745 | –
[1], m1 = 0.02703 | 945.89 | –
[1], m1 = 0.03337 | 946.237 | –
[1], m1 = 0.03725 | 946.45 | –
[1], m1 = 0.04099 | 946.651 | –
[2], c1 = 0.0001357 | – | 0.007691
[2], c1 = 0.0001826 | – | 0.007656
[2], c1 = 0.0002263 | – | 0.007631
[2], c1 = 0.0002718 | – | 0.007605
[2], c1 = 0.0003169 | – | 0.007581
[2], c1 = 0.0003578 | – | 0.007564
[2], c1 = 0.0004043 | – | 0.007541
[2], c1 = 0.0004399 | – | 0.007527
[2], c1 = 0.0004725 | – | 0.00751
[2], c1 = 0.0005219 | – | 0.007494

CCCCCCCCCCCCn1cc[n+](C)c1.[Br-] [1-dodecyl-3-methylimidazolium bromide] + C[S+](C)[O-]
Conditions | mass density [kg/m3] | molar conductivity [S·m2/mol]
[1], m1 = 0.00268 | 1095.36 | –
[1], m1 = 0.004967 | 1095.36 | –
[1], m1 = 0.007868 | 1095.37 | –
[1], m1 = 0.01038 | 1095.38 | –
[1], m1 = 0.01304 | 1095.39 | –
[1], m1 = 0.016 | 1095.41 | –
[1], m1 = 0.01873 | 1095.42 | –
[1], m1 = 0.02082 | 1095.43 | –
[1], m1 = 0.02457 | 1095.44 | –
[1], m1 = 0.02736 | 1095.46 | –
[2], c1 = 0.0003026 | – | 0.003442
[2], c1 = 0.0003758 | – | 0.003429
[2], c1 = 0.0004555 | – | 0.003416
[2], c1 = 0.0005343 | – | 0.003406
[2], c1 = 0.0006078 | – | 0.003397
[2], c1 = 0.0006771 | – | 0.003389
[2], c1 = 0.0007464 | – | 0.003381
[2], c1 = 0.0008059 | – | 0.003374
[2], c1 = 0.0009021 | – | 0.003365
